# Reference: patent publication US20070208068A1, “Aqueous Composition Comprising Thiazole Derivative” (R-TECH UENO, LTD. & Astellas Pharma Inc., priority 2004, published 2007)
# What was measured:
# Format in all cases: physicochemical
# [1] = Effect of sodium chloride on the solubility of Compound A, B and C (aqueous saturated solutions); details: for solubility: thermodynamic from solid; for Precipitation: aqueous saturated solution
# Experimental: Sodium chloride was added to thus obtained aqueous saturated solution of Compound A, B, and C respectively in an amount to give 0.4% NaCl solution and the mixture was stirred.
# Similarly, the saturated aqueous solution of Compound A-C was added with sodium chloride in an amount to give 0.85% solution, and precipitation and solubility were observed.
# [2] = Effect of the additives on solubility of Compound C (aqueous saturated solution)
# Experimental: To the saturated solution of Compound C prepared in the same manner as test example 1, glycerin in an amount to give 2.5% solution was added and the mixture was stirred. Similarly, mannitol in an amount to give 3.5% solution, boric acid in an amount to give 2% solution, potassium chloride in an amount to give 0.2% solution, disodium hydrogenphosphate in an amount to give 1% and sodium citrate in an amount to give 1% solution were added to the aqueous saturated solution of Compound C respectively. Precipitation and solubility, i.e. the change of the concentration of Compound C in the solution or supernatant were observed.
# [3] = Effect of the additives on the stability of the aqueous solution comprising Compound C, stored at 40° C. in LDPE container
# [4] = Effect of the additives on the stability of the aqueous solution comprising Compound D, stored at 40° C. in LDPE container; details: Compound D 0.3%
# Experimental: Compound D was added with glycerin and distilled water and stirred to give clear aqueous solution (Conc. of Compound D: 0.3%, conc. of glycerin: 2.5%, about pH 6). Thus obtained solution was stored at 40° C. in the LDPE container and concentration of Compound D in the solution was observed over time.
# [5] = aqueous saturated solution with 0.4% NaCl, saline or isotonic, conc. in solution or supernatant, NaCl 0.4%
# [6] = aqueous saturated solution with 0.85% NaCl, saline or isotonic, conc. in solution or supernatant, NaCl 0.85%
# [7] = distilled water (injection grade), aqueous saturated solution in distilled water, NaCl 0%, A about pH 7, B about pH 3 (HCl), C about pH 7 (HCl)
# [8] = Boric acid 1.68% and borax 0.018%, 40° C., 1 month
# [9] = Boric acid 1.68% and borax 0.018%, 40° C., 3 months
# [10] = Boric acid 1.68% and borax 0.018%, 40° C., 6 months
smiles,measurement,setting,value
CC(=O)Nc1nc(CCc2ccc(NC(=N)N)cc2)cs1 [Compound A],% Solubulity,[1]; NaCl 0% (reference),=100%
same,% Solubulity,"[1]; NaCl 0.4%, vs 0% NaCl",31%
same,% Solubulity,"[1]; NaCl 0.85%, vs 0% NaCl",20%
same,solubility,[1]; [5],1110 µg/mL
same,solubility,[1]; [6],690 µg/mL
same,Precipitation,[1]; conc. of NaCl 0%,no
same,Precipitation,[1]; conc. of NaCl 0.4%,yes
same,Precipitation,[1]; conc. of NaCl 0.85%,yes
same,solubility,[1]; [7],3550 µg/mL
CC(=O)Nc1nc(CCc2ccc(CON)cc2)cs1 [Compound B],% Solubulity,[1]; NaCl 0% (reference),=100%
same,% Solubulity,"[1]; NaCl 0.4%, vs 0% NaCl",100%
same,% Solubulity,"[1]; NaCl 0.85%, vs 0% NaCl",100%
same,solubility,[1]; [5],1170 µg/mL
same,solubility,[1]; [6],1190 µg/mL
same,Precipitation,[1]; conc. of NaCl 0%,no
same,Precipitation,[1]; conc. of NaCl 0.4%,no
same,Precipitation,[1]; conc. of NaCl 0.85%,no
same,solubility,[1]; [7],1120 µg/mL
CC(=O)Nc1nc(CCc2ccc(NC(=N)N)cc2)c(Cc2ccc(S(C)(=O)=O)cc2)s1 [Compound C],% Solubulity,[1]; NaCl 0% (reference),=100%
same,% Solubulity,"[1]; NaCl 0.4%, vs 0% NaCl",16%
same,% Solubulity,"[1]; NaCl 0.85%, vs 0% NaCl",8%
same,solubility,[1]; [5],1760 µg/mL
same,solubility,[1]; [6],860 µg/mL
same,Precipitation,[1]; conc. of NaCl 0%,no
same,Precipitation,[1]; conc. of NaCl 0.4%,yes
same,Precipitation,[1]; conc. of NaCl 0.85%,yes
same,solubility,[1]; [7],10700 µg/mL
same,B/A ratio,[2]; Boric acid 2%,100%
same,Conc. of C/w additive (B),[2]; Boric acid 2%,11590 µg/mL
same,Precipitation,[2]; Boric acid 2%,no
same,B/A ratio,[2]; Glycerin 2.5%,95%
same,Conc. of C/w additive (B),[2]; Glycerin 2.5%,10910 µg/mL
same,Precipitation,[2]; Glycerin 2.5%,no
same,B/A ratio,[2]; Mannitol 3.5%,96%
same,Conc. of C/w additive (B),[2]; Mannitol 3.5%,11050 µg/mL
same,Precipitation,[2]; Mannitol 3.5%,no
same,B/A ratio,[2]; Potassium Chloride 0.2%,29%
same,Conc. of C/w additive (B),[2]; Potassium Chloride 0.2%,3160 µg/mL
same,Precipitation,[2]; Potassium Chloride 0.2%,yes
same,solubility thermodynamic,"[2]; aqueous saturated solution, pH 7, water, thermodynamic from solid, saturated solution before adding Mannitol 3.5%, read-out: Conc. of C w/o additive (A)",11500 µg/mL
same,B/A ratio,[2]; disodium hydrogenphosphate 1%,24%
same,Conc. of C/w additive (B),[2]; disodium hydrogenphosphate 1%,2540 µg/mL
same,Precipitation,[2]; disodium hydrogenphosphate 1%,yes
same,Conc. of C w/o additive (A),[2]; saturated solution before adding Boric acid 2%,11510 µg/mL
same,Conc. of C w/o additive (A),[2]; saturated solution before adding Glycerin 2.5%,11510 µg/mL
same,Conc. of C w/o additive (A),[2]; saturated solution before adding Potassium Chloride 0.2%,10730 µg/mL
same,Conc. of C w/o additive (A),[2]; saturated solution before adding disodium hydrogenphosphate 1%,10730 µg/mL
same,Conc. of C w/o additive (A),[2]; saturated solution before adding sodium citrate 1%,10730 µg/mL
same,B/A ratio,[2]; sodium citrate 1%,4%
same,Conc. of C/w additive (B),[2]; sodium citrate 1%,480 µg/mL
same,Precipitation,[2]; sodium citrate 1%,yes
same,Change in Concentration of Compound C (vs the initial conc.),[3]; [8],104.9%
same,Change in Concentration of Compound C (vs the initial conc.),[3]; [9],106.2%
same,Change in Concentration of Compound C (vs the initial conc.),[3]; [10],108.2%
same,Change in Concentration of Compound C (vs the initial conc.),"[3]; Boric acid 1.68% and borax 0.018%, 40° C., Initial",=100%
same,Change in Concentration of Compound C (vs the initial conc.),"[3]; Glycerin 2.5%, Compound C 0.3%, about pH 6, 40° C., 1 month",105.4%
same,Change in Concentration of Compound C (vs the initial conc.),"[3]; Glycerin 2.5%, Compound C 0.3%, about pH 6, 40° C., 3 months",110.6%
same,Change in Concentration of Compound C (vs the initial conc.),"[3]; Glycerin 2.5%, Compound C 0.3%, about pH 6, 40° C., 6 months",112.3%
same,Change in Concentration of Compound C (vs the initial conc.),"[3]; Glycerin 2.5%, Compound C 0.3%, about pH 6, 40° C., Initial",=100%
same,Change in Concentration of Compound C (vs the initial conc.),"[3]; Mannitol 4.7%, 40° C., 1 month",103.7%
same,Change in Concentration of Compound C (vs the initial conc.),"[3]; Mannitol 4.7%, 40° C., 3 months",108.4%
same,Change in Concentration of Compound C (vs the initial conc.),"[3]; Mannitol 4.7%, 40° C., 6 months",109.6%
same,Change in Concentration of Compound C (vs the initial conc.),"[3]; Mannitol 4.7%, 40° C., Initial",=100%
CC(=O)Nc1nc(CCc2ccc(NC(=N)N)cc2)c(Cc2ccc(S(C)(=O)=O)cc2)s1.Cl [Compound D],Change in Concentration of Compound D (vs the initial conc.),[4]; [8],99.7%
same,Change in Concentration of Compound D (vs the initial conc.),[4]; [9],105.8%
same,Change in Concentration of Compound D (vs the initial conc.),[4]; [10],102.6%
same,Change in Concentration of Compound D (vs the initial conc.),"[4]; Boric acid 1.68% and borax 0.018%, 40° C., initial",=100%
same,Change in Concentration of Compound D (vs the initial conc.),"[4]; Glycerin 2.5%, about pH 6, 40° C., 1 month",100.8%
same,Change in Concentration of Compound D (vs the initial conc.),"[4]; Glycerin 2.5%, about pH 6, 40° C., 3 months",107.7%
same,Change in Concentration of Compound D (vs the initial conc.),"[4]; Glycerin 2.5%, about pH 6, 40° C., 6 months",104.4%
same,Change in Concentration of Compound D (vs the initial conc.),"[4]; Glycerin 2.5%, about pH 6, 40° C., initial",=100%
